The source of these data is PubChem BioAssay (NCI).

Test systems include MDA-MB-231 breast; NCI-H460 lung; PC-3 prostate; UACC-62 melanoma; HT29 colon; HS 578T breast; M14 melanoma; OVCAR-5 ovarian; NCI-H226 lung; HL-60(TB) leukemia.
What all share (experiment): NCI anticancer screen, dose series, 48 h

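A five-concentration, 48-hour dose response in 96-well plates underlies each endpoint, interpolated linearly between surrounding concentrations. GI50 = concentration required for 50% inhibition of growth. TGI denotes the concentration required for complete inhibition of growth.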 Where only a bound is given, the exact number is not on record here.

Take `Cc1ccc(-c2c3c(nn2-c2ccc(S(N)(=O)=O)cc2)-c2ccccc2C3)cc1`: the GI50 in the assay with MDA-MB-231 breast was 14.5 µM; with NCI-H460 lung it was 19.1 µM; in the assay with PC-3 prostate, 16.1 µM; in the assay on UACC-62 melanoma it was 11.3 µM; in the assay on HT29 colon it was 24.2 µM; with HS 578T breast it was 13.5 µM. Moreover, the GI50 in the assay on M14 melanoma was 19.2 µM; in the assay with OVCAR-5 ovarian it was 26.1 µM; in the assay on NCI-H226 lung it was 16.5 µM. The TGI in the assay on MDA-MB-231 breast worked out at 37.4 µM; in the assay with NCI-H460 lung, 43.7 µM; with PC-3 prostate, 42.6 µM; in the assay on UACC-62 melanoma it was 24.1 µM; with HT29 colon, 95.8 µM; in the assay with HS 578T breast, 36.2 µM. The TGI stood at 37.6 µM in the assay on M14 melanoma, 63.7 µM in the assay with OVCAR-5 ovarian and 44 µM in the assay on NCI-H226 lung.
Consider `CC(=O)OC1=CC2=CC[C@H]3[C@@H]4CCC(=O)[C@@]4(C)CC(=O)[C@]3(S)[C@@]2(C)CC1`, for which the TGI in the assay with MDA-MB-231 breast is 66.8 µM; with NCI-H460 lung, 69.8 µM; in the assay with PC-3 prostate, over 100 µM; in the assay with UACC-62 melanoma it was 93.1 µM; in the assay on HT29 colon, over 100 µM; with HS 578T breast, 74.6 µM. Besides, the TGI with M14 melanoma and in the assay with OVCAR-5 ovarian was over 100 µM each time.
Consider `S=C(Nc1ccc(N=Nc2ccccc2)cc1)SCc1ccccc1`, for which the TGI in the assay with MDA-MB-231 breast came out at 28.9 µM; in the assay with NCI-H460 lung it was 39.5 µM; in the assay with PC-3 prostate it was 30.6 µM; in the assay with UACC-62 melanoma, 31.8 µM; with HT29 colon, 52.1 µM; with HS 578T breast, 61.5 µM. Also, the TGI with M14 melanoma is 37.6 µM; in the assay with NCI-H226 lung it was 39 µM.
Take `COc1ccc2c(C3(c4cn(C)c5cc(OC)ccc45)C(=O)Nc4ccc(Cl)cc43)cn(C)c2c1`: the GI50 is 1.53 µM with MDA-MB-231 breast; 3.29 µM with NCI-H460 lung; 3.65 µM in the assay on PC-3 prostate; 3.49 µM in the assay with UACC-62 melanoma; 3.22 µM in the assay with HT29 colon; 3.5 µM in the assay on HS 578T breast. Further, the values for the GI50 with M14 melanoma, in the assay on OVCAR-5 ovarian and in the assay with NCI-H226 lung were 4.19 µM, 5.37 µM and 5.44 µM, respectively. Besides, the TGI is 5.1 µM in the assay with MDA-MB-231 breast; 11.7 µM in the assay on NCI-H460 lung; over 100 µM in the assay with PC-3 prostate; 25 µM with UACC-62 melanoma; 24 µM in the assay on HT29 colon; 87.9 µM with HS 578T breast. In addition, the TGI in the assay on M14 melanoma, with OVCAR-5 ovarian and in the assay with NCI-H226 lung was over 100 µM each time.
Regarding `NC1=NC(c2ccc(Cl)cc2)N(c2ccc(S(N)(=O)=O)cc2)C(N)=N1` (stereo unspecified), the TGI in the assay with MDA-MB-231 breast, with NCI-H460 lung, in the assay on PC-3 prostate, with UACC-62 melanoma, with HT29 colon and in the assay with HS 578T breast was over 100 µM each time. In addition, the TGI with M14 melanoma, in the assay on OVCAR-5 ovarian and with NCI-H226 lung was over 100 µM each time.
`O=C(O)C1CC2(C1)CC(C(=O)O)C2` (stereo unspecified): the TGI in the assay with MDA-MB-231 breast, with NCI-H460 lung, in the assay with PC-3 prostate, in the assay on UACC-62 melanoma, with HT29 colon and in the assay with HS 578T breast was over 100 µM throughout. Moreover, the TGI in the assay with M14 melanoma and in the assay on OVCAR-5 ovarian was over 100 µM in each case.
Consider `CC(=O)c1c(CN(C)c2ccccc2)n([O-])c2ccccc2[n+]1=O`, for which the GI50 with MDA-MB-231 breast was 27.1 µM; with NCI-H460 lung it was 33.6 µM; in the assay on PC-3 prostate, 11.7 µM; in the assay on UACC-62 melanoma it was 23.9 µM; in the assay with HT29 colon, 20.4 µM; in the assay with HS 578T breast it was 50.7 µM. Also, the GI50 with M14 melanoma is 31.4 µM; in the assay on OVCAR-5 ovarian, 31.9 µM; in the assay on NCI-H226 lung, 20.2 µM. For the same compound, the TGI in the assay with MDA-MB-231 breast was over 100 µM; in the assay on NCI-H460 lung, over 100 µM; in the assay on PC-3 prostate, 44.3 µM; with UACC-62 melanoma, 83.8 µM; in the assay on HT29 colon, 49.2 µM; in the assay with HS 578T breast, over 100 µM. Further, the TGI in the assay on M14 melanoma was 80.4 µM; with OVCAR-5 ovarian, over 100 µM; with NCI-H226 lung it was 67.5 µM.
As to `COC(=O)C(=CNC(N)=O)C(=O)OC`, the TGI in the assay on NCI-H460 lung, with PC-3 prostate, in the assay with UACC-62 melanoma, with HT29 colon, in the assay on HS 578T breast and in the assay with M14 melanoma was over 100 µM throughout. Further, the TGI in the assay on OVCAR-5 ovarian is over 100 µM.
As for `CC(=O)NC1C(OCc2ccccc2)OC(CO)C(O)C1OC(C)C(=O)N[C@@H](C)C(=O)N[C@H](CCC(=O)OCCNc1c2ccccc2nc2cccc([N+](=O)[O-])c12)C(N)=O` (stereo partly specified), the TGI is 0.00137 µM with NCI-H460 lung; 0.00203 µM in the assay on UACC-62 melanoma; 56.4 nM with HL-60(TB) leukemia; 0.00443 µM in the assay on HT29 colon; 0.00251 µM in the assay with M14 melanoma; 0.0061 µM in the assay on OVCAR-5 ovarian. For the same compound, the TGI in the assay with NCI-H226 lung was found to be 0.0217 µM.
